The test system of this test is CEM cells HIV-1 protection, formazan growth assay. Put plainly: NCI AIDS Antiviral Assay. The conditions noted are these: for IC50: measured here: growth of uninfected CEM cells. In outline: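 Category rules: moderately active means at least 50% protection on retest, and confirmed active means 100% protection reproducibly. The underlying data came from a formazan growth assay in HIV-1-infected CEM cells.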

The structures appear in SMILES notation. Activity calls are given as the source filed them.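 How the source made its calls: active means compounds giving half or more protection of infected cells from virus-caused growth loss, again on retest; inactive means the rest.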

For the compound `CN1CCN(CCCCN2c3ccccc3Sc3ccc(C(=O)c4ccccc4)cc32)CC1`, the EC50 was > 100 µM and the IC50 was 4.47 µM.

For the compound `CC12CCC(O)CC1=CCC1C2CCC2(C)C3=NN=CC3CC12` (stereo unspecified), the EC50 is > 200 µM and the concentration for half-maximal inhibition (IC50) stood at 12 µM.

As for `COc1ccc(-c2cc(=O)c3ccccc3o2)c(OC)c1OC`, the EC50 was > 200 µM and the half-maximal inhibitory concentration (IC50) was 31.6 µM.

With `O=c1c(SCc2ccccc2)c(SCc2ccccc2)cnn1-c1ccccc1`, the EC50 was > 24 µM.

In the case of `O=c1c2cc(Br)ccc2[nH]c(=S)n1-c1ccccc1`, the EC50 was > 40.7 µM and the concentration for half-maximal inhibition (IC50) is > 40.7 µM.

As for `[N-]=[N+]=Nc1c(Cl)c(Cl)nc2ccccc12`, the EC50 is > 200 µM and the IC50 is 61.7 µM.

For the compound `CC1(C)CC[P+](CC[P+]2(c3ccccc3)CCC(C)(C)c3ccccc32)(c2ccccc2)c2ccccc21` (stereo unspecified), the EC50 was > 407 µM and the IC50 came to 64.6 µM.

Regarding `COc1cc(C)c2c(c1)CN1CN2Cc2cc(OC)cc(C)c21`, the outcome was inactive.

With `CC(C)(C)[Si](C)(C)OCC1OC(n2ccc(=O)[nH]c2=O)C(OC(=S)Oc2ccccc2)C1O[Si](C)(C)C(C)(C)C` (stereo unspecified), the EC50 was > 200 µM and the 50% inhibitory concentration (IC50) was found to be 2 µM.

For `O=C1C=CC[C@H](/C=C/C[C@@H](O)C[C@H](O)/C=C/c2ccccc2)O1`, the EC50 is > 200 µM and the IC50 is 5.37 µM.

As to `O=C1OC(c2ccccc2)=N/C1=C\c1ccccc1O`, the EC50 is > 26.9 µM and the IC50 is > 26.9 µM.

Take `CC(=O)N=C1N(/C=C2\C(=O)Oc3ccccc3C2=O)C(=O)/C(=C/c2cccc([N+](=O)[O-])c2)N1C`: the EC50 was > 100 µM and the IC50 turned out to be 97.7 µM.

With `CC(=O)NC1=NC(=O)/C(=C/c2ccc3c(c2)OCO3)N1C`, the EC50 was > 200 µM and the IC50 is > 200 µM.

In the case of `C/C(=N\N=C(/[O-])c1ccncc1)c1cccc(/C(C)=N/N=C(\[O-])c2ccncc2)n1.O.[Cu+2]`, the EC50 is > 200 µM and the 50% inhibitory concentration (IC50) is 2.24 µM.

Consider `Cc1n[nH]c(=O)n1Nc1ccccc1`, for which the EC50 was > 200 µM and the IC50 was > 200 µM.

Take `COc1ccc2cc(-c3ccc(OC)c(OC)c3)c(=O)oc2c1`: the EC50 is > 200 µM and the concentration for half-maximal inhibition (IC50) was > 200 µM.

Consider `CCCCNC(=S)SSSC(=S)NCCCC`, for which the EC50 was > 200 µM and the 50% inhibitory concentration (IC50) stood at 2.75 µM.

Regarding `Clc1nc(Cl)nc(-c2cccn2-c2ccccc2)n1`, the EC50 was > 200 µM and the IC50 amounted to 129 µM.

`S=C(Cc1ccc2c(c1)Sc1ccccc1O2)N1CCOCC1`: the EC50 is > 200 µM and the IC50 is 27.5 µM.

Consider `O=c1c2c3c(sc2nc2n1NC=NN2)CCCC3`, for which the EC50 was > 20 µM and the IC50 is 8.51 µM.

For the compound `CN(C)CCSc1nccc(-c2cc3ccccc3s2)n1`, the EC50 was > 417 µM and the half-maximal inhibitory concentration (IC50) turned out to be 11.5 µM.

For the compound `CC(C)CN(CC(C)C)C(=O)C(Br)C(Br)C(=O)O` (stereo unspecified), the EC50 is > 200 µM and the IC50 was found to be 91.2 µM.

Turning to `O=[N+]([O-])c1ccccc1Nc1ccccc1`, the result was inactive.

Consider `CC(C)N1CCOC12CCCC2`, for which the EC50 is > 200 µM and the concentration for half-maximal inhibition (IC50) was 29.5 µM.

As for `CCN=C(c1ccc(NC(=O)c2ccc(C(=O)Nc3ccc(C(=NCC)N(CC)CC)cc3)cc2)cc1)N(CC)CC`, the EC50 was > 200 µM and the IC50 is 64.6 µM.

Consider `Cc1cccc(C)c1N/C(=N\Nc1c([N+](=O)[O-])cccc1[N+](=O)[O-])NC(=O)c1ccccc1C(=O)N/C(=N/Nc1c([N+](=O)[O-])cccc1[N+](=O)[O-])Nc1c(C)cccc1C`, for which the EC50 is > 200 µM and the IC50 turned out to be 69.2 µM.

Turning to `c1cnc2c(c1)Oc1nc3ccccc3nc1S2`, the EC50 is > 91.2 µM and the half-maximal inhibitory concentration (IC50) was 14.5 µM.

For the compound `C[N+]12CCCCC1CC(=O)CC2` (stereo unspecified), the EC50 is > 851 µM and the concentration for half-maximal inhibition (IC50) was > 851 µM.

In the case of `O=C1C(=Cc2ccc(Cl)cc2)C(=O)c2ccccc21`, the EC50 was > 17.4 µM and the IC50 is > 17.4 µM.

For `Cc1cc(C)c(S(=O)(=O)Sc2nnnn2-c2ccccc2)c(C)c1`, the EC50 is > 20 µM and the concentration for half-maximal inhibition (IC50) was > 20 µM.

In the case of `CN(C)CCSc1cc(-c2ccccc2)c2ccccc2n1`, the EC50 was > 200 µM and the 50% inhibitory concentration (IC50) came to 6.31 µM.

For `O=c1[nH]c(=O)n(COCc2ccccc2)c2ccsc12`, the outcome was inactive.

As for `CCc1cc(C(=O)OC)cn1C(=N)c1ccc(Cl)cc1`, the EC50 is > 851 µM and the 50% inhibitory concentration (IC50) is > 851 µM.

Turning to `c1ccc(-c2cn3c(nc4ccccc43)c(-c3ccccc3)n2)cc1`, the EC50 was > 200 µM and the IC50 was found to be 132 µM.

With `c1ccc(N2N=NC3C4CC(C5c6ccccc6C45)C32)cc1` (stereo unspecified), the result was inactive.

Consider `CC12CCCCC1C(=O)C2(Cl)Cl` (stereo unspecified), for which the outcome was inactive.

Regarding `CC[C@@H]1CC[C@@H]2[C@H](CC[C@]3(C)[C@@H](OC(C)=O)CC[C@@H]23)[C@H]1C(=O)OC`, the EC50 is > 200 µM and the IC50 was 24.5 µM.

On to `CC(C)(C)OC(=O)N1C(=O)C2CCCC21` (stereo unspecified), for which the EC50 was > 200 µM and the 50% inhibitory concentration (IC50) was > 200 µM.

Regarding `CC1=Nc2ccccc2N=C(c2c(O)c3ccc4ccccc4c3oc2=O)C1`, the EC50 was > 200 µM and the concentration for half-maximal inhibition (IC50) was 49 µM.

Turning to `Cc1cccc2c1C(=O)N(CC[P+](c1ccccc1)(c1ccccc1)c1ccccc1)C2=O`, the EC50 was > 200 µM and the IC50 stood at 7.94 µM.

As to `CS1(C)=NC(=O)c2cc([N+](=O)[O-])ccc2N=1`, the EC50 was > 123 µM and the half-inhibitory concentration (IC50) was > 123 µM.

Consider `COc1ccc2c(c1)OC[C@@H]1c3cc(O)c(OCc4ccccc4)cc3O[C@]21C`, for which the EC50 is > 200 µM and the IC50 came out at 24 µM.

For `Cc1ccc(NC(=O)/C(=N\Nc2ccc([N+](=O)[O-])cc2[N+](=O)[O-])C2C(=O)NC(=O)NC2=O)cc1`, the result was inactive.

Consider `CS1(=O)=NC(=N)c2ccccc21` (stereo unspecified), for which the result was inactive.

`Nc1nc(Cl)cc(NCC2(CO)CC(=O)C2)n1`: the EC50 was > 200 µM and the IC50 was > 200 µM.

For the compound `N#C/C(=C\NC(=S)N=Nc1c(O)[nH]c2ccccc12)c1nc2ccccc2s1`, the EC50 is > 200 µM and the 50% inhibitory concentration (IC50) was > 200 µM.

`O=C(O)[C@@H]1CCC(=O)N1C(c1ccc2c(c1)OCO2)c1ccc2c(c1)OCO2`: the EC50 is > 200 µM and the half-inhibitory concentration (IC50) was > 200 µM.

For the compound `CCN(CCCN(CC)C(=O)N[C@@H](Cc1ccccc1)C(=O)NC)C(=O)N[C@@H](Cc1ccccc1)C(=O)NC`, the EC50 is > 200 µM and the half-maximal inhibitory concentration (IC50) was > 200 µM.

`O=c1[nH]c2nc3ccccc3c(=O)n2/c1=C/c1cccs1`: the EC50 is > 200 µM and the IC50 is 110 µM.

With `CC(=O)NC1C(OC(C)C(=O)NC(C)C(=O)NC(CCC(=O)NCCCNc2ccc([N+](=O)[O-])c3[nH]c4ccccc4c(=O)c23)C(N)=O)C(O)C(CO)OC1(C)OCc1ccccc1` (stereo unspecified), the EC50 is > 151 µM and the IC50 came out at 15.8 µM.

Take `[O-]c1on[n+]2c1Cc1ccccc1C2`: the EC50 is > 200 µM and the IC50 was > 200 µM.

For the compound `CCOP(=O)(OCC)C(C1OC(n2ccc(=O)[nH]c2=O)C(O[Si](C)(C)C(C)(C)C)C1O[Si](C)(C)C(C)(C)C)N(C)O` (stereo unspecified), the EC50 is > 200 µM and the IC50 is 4.79 µM.

For orientation: EC50 means the concentration needed to bring the measured effect to its halfway point. In general, IC50 refers to the concentration that gives 50% inhibition. Higher therefore signals weaker potency.

These data come from PubChem BioAssay AID179 (DTP/NCI, 2004).
